# Laboratory results taken from patent US10517889B2, “Modulators of SMAD7 expression” (Ionis Pharmaceuticals, Inc., priority 2017, dated 2019).
# Strand notation (5' to 3'): a small letter for the sugar, then the base; units joined by * are phosphorothioate-linked, units joined directly phosphodiester-linked; [ ] holds rarer units or linkages, { } end groups; capitals alone tell only the bases. k = constrained ethyl (cEt); [5mC] = 5-methylcytosine; d = 2'-deoxy (DNA)
# System: human SMAD7 mRNA
# Test: Antisense inhibition of human SMAD7 mRNA expression in Hep3B cells by 3-10-3 cEt gapmers, 10,000 nM, electroporation (Example 2)
# Type: cell-based
# Conditions: Hep3B cells, 10,000 nM antisense oligonucleotide, electroporation, approximately 24 hours, RT-PCR primer probe set RTS5062, relative to untreated control cells
# Outline: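 Hep3B, 20,000 cells/well; electroporation, 10,000 nM ASO; ~24 h. Readout: SMAD7 mRNA by qRT-PCR (RTS5062), RIBOGREEN-normalised; % inhibition vs untreated.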
row,Substance,% Inhibition
1,800073 (antisense kT*kA*kA*dG*dT*dA*dG*dG*dA*dG*d[5mC]*d[5mC]*dA*kG*k[5mC]*kG) [compound 800073],39%
2,799875 (kG*kT*kG*d[5mC]*dA*dG*dA*d[5mC]*dT*dG*dG*dA*dA*kA*kA*kG; antisense) [compound 799875],41%
3,772597 (k[5mC]*kA*kG*dT*dA*dT*dG*d[5mC]*d[5mC]*dA*d[5mC]*d[5mC]*dA*k[5mC]*kG*k[5mC]; antisense) [compound 772597],0%

# Same assay, conditions: Hep3B cells, electroporation with 10,000 nM antisense oligonucleotide, approximately 24 hours, RTS5062, percent inhibition of SMAD7 mRNA relative to untreated control cells
row,Substance,% Inhibition
1,799687 (antisense kG*kG*k[5mC]*dA*dG*d[5mC]*dA*dG*dA*d[5mC]*d[5mC]*dA*dT*k[5mC]*kT*kT) [compound 799687],35%
2,799646 (antisense k[5mC]*kA*kG*dA*dA*dA*d[5mC]*dT*d[5mC]*d[5mC]*dA*dG*dA*kT*kG*kG) [compound 799646],18%
3,799514 (antisense kT*k[5mC]*kG*dG*dA*dG*dT*dT*dT*d[5mC]*d[5mC]*dT*d[5mC]*kA*k[5mC]*kT) [compound 799514],40%
4,799690 (antisense kA*kG*k[5mC]*dT*dA*d[5mC]*dA*dG*dT*d[5mC]*dA*dG*dG*k[5mC]*kT*kT) [compound 799690],51%

# Same assay, conditions: Hep3B cells, electroporation with 10,000 nM antisense oligonucleotide, approximately 24 hours, SMAD7 mRNA by RT-PCR (RTS5062), relative to untreated control cells
row,Substance,% Inhibition
1,799885 (k[5mC]*k[5mC]*k[5mC]*d[5mC]*dA*d[5mC]*dA*dG*dA*dT*d[5mC]*d[5mC]*dA*kA*k[5mC]*kT; antisense) [compound 799885],0%
2,799988 (kG*k[5mC]*kG*d[5mC]*dA*dA*dA*d[5mC]*dA*dT*d[5mC]*dA*d[5mC]*k[5mC]*kA*k[5mC]; antisense) [compound 799988],32%
3,830146 (antisense kT*kG*kG*dT*d[5mC]*dT*dT*d[5mC]*dA*d[5mC]*d[5mC]*dA*dG*kG*kG*kT) [compound 830146],62%
4,830156 (antisense k[5mC]*kT*kG*dT*dG*d[5mC]*d[5mC]*dT*d[5mC]*dA*dG*d[5mC]*dA*kG*kT*kT) [compound 830156],48%
5,830119 (k[5mC]*k[5mC]*kG*dA*d[5mC]*d[5mC]*dT*dT*d[5mC]*d[5mC]*dT*d[5mC]*d[5mC]*k[5mC]*kA*k[5mC]; antisense) [compound 830119],24%
6,830074 (k[5mC]*kT*k[5mC]*dA*dG*dA*dT*d[5mC]*dA*dA*dA*dG*dG*kT*kA*kA; antisense) [compound 830074],43%
7,830092 (kA*kT*kT*dA*dG*dT*d[5mC]*d[5mC]*d[5mC]*dA*dT*dG*dA*kA*kA*k[5mC]; antisense) [compound 830092],43%
8,830047 (kT*kT*k[5mC]*d[5mC]*dG*dA*dT*dT*dG*dG*d[5mC]*dA*dG*kG*kT*kT; antisense) [compound 830047],42%
9,798833 (kT*kA*kG*dA*dT*d[5mC]*dA*dT*dA*dG*dA*dA*dG*kA*kT*kA; antisense) [compound 798833],48%
10,830084 (kG*kA*kT*dA*d[5mC]*dA*d[5mC]*dT*dT*dA*dA*dT*d[5mC]*kA*kA*kA; antisense) [compound 830084],26%
11,799908 (antisense k[5mC]*kA*kT*dA*dA*dT*dA*dT*dT*dG*dA*d[5mC]*dA*kG*kT*kA) [compound 799908],41%
12,772536 (antisense kG*kA*k[5mC]*d[5mC]*dT*d[5mC]*d[5mC]*dG*d[5mC]*dA*d[5mC]*dA*d[5mC]*k[5mC]*kA*kT) [compound 772536],22%
13,799428 (antisense kG*kA*k[5mC]*d[5mC]*dA*d[5mC]*dA*d[5mC]*dA*dG*dT*dA*d[5mC]*k[5mC]*kT*kA) [compound 799428],47%
14,790492 (kT*k[5mC]*k[5mC]*d[5mC]*dG*dT*dA*dA*dG*dA*dT*dT*d[5mC]*kA*k[5mC]*kA; antisense) [compound 790492],38%
15,800046 (kG*kG*k[5mC]*d[5mC]*dA*dA*d[5mC]*dA*dG*dG*dA*dG*dG*kA*kG*kG; antisense) [compound 800046],42%
16,830164 (antisense kG*k[5mC]*kT*dG*d[5mC]*dT*dT*dG*dG*d[5mC]*d[5mC]*dT*dT*kA*k[5mC]*k[5mC]) [compound 830164],38%
17,830125 (antisense kT*k[5mC]*k[5mC]*dG*dA*dG*dG*d[5mC]*dA*d[5mC]*d[5mC]*dA*d[5mC]*kA*kT*kT) [compound 830125],46%
18,799392 (antisense kT*kA*kT*dT*dA*dG*dA*d[5mC]*d[5mC]*dG*dG*d[5mC]*dA*k[5mC]*k[5mC]*kA) [compound 799392],46%

# Same assay, conditions: Hep3B cells, electroporation with 10,000 nM antisense oligonucleotide, approximately 24 hours, primer probe set RTS5062, relative to untreated control cells
Substance,% Inhibition,% inhibition of SMAD7 mRNA expression
798981 (antisense k[5mC]*kA*kT*dA*d[5mC]*dA*d[5mC]*dT*dG*dT*dG*dT*dT*kT*kG*kG) [compound 798981],58%,
798993 (antisense k[5mC]*kA*k[5mC]*dA*d[5mC]*dT*d[5mC]*d[5mC]*dT*dG*dA*d[5mC]*dA*kA*kG*kT) [compound 798993],37%,
799250 (antisense kT*kG*k[5mC]*dG*d[5mC]*dG*dG*d[5mC]*d[5mC]*dA*d[5mC]*dG*dA*k[5mC]*kA*kG) [compound 799250],,21%
799119 (antisense kA*kG*k[5mC]*dA*dG*dA*dG*d[5mC]*dT*dT*dA*dA*d[5mC]*kA*k[5mC]*kA) [compound 799119],50%,
798998 (antisense k[5mC]*kG*k[5mC]*dA*d[5mC]*dA*d[5mC]*dT*d[5mC]*dA*d[5mC]*dA*d[5mC]*kT*k[5mC]*kA) [compound 798998],13%,
799061 (antisense kT*kT*k[5mC]*dG*dG*d[5mC]*d[5mC]*dA*d[5mC]*dT*dA*dG*d[5mC]*kA*kG*kG) [compound 799061],45%,
799033 (k[5mC]*k[5mC]*k[5mC]*dA*dG*dG*dT*dA*d[5mC]*dT*dG*d[5mC]*d[5mC]*kT*k[5mC]*kT; antisense) [compound 799033],35%,
798746 (antisense kT*kG*kG*dA*dG*d[5mC]*dA*dG*d[5mC]*dA*dG*d[5mC]*dT*k[5mC]*k[5mC]*kA) [compound 798746],,30%
798690 (antisense kG*kG*k[5mC]*dT*d[5mC]*d[5mC]*dT*d[5mC]*d[5mC]*dA*dG*dA*dG*kA*k[5mC]*kG) [compound 798690],,29%
799358 (kA*kG*k[5mC]*dA*d[5mC]*dA*dA*dA*dT*dA*d[5mC]*dA*dT*kG*kA*kA; antisense) [compound 799358],,52%

# Same assay, conditions: Hep3B cells, electroporation, 10,000 nM antisense oligonucleotide, approximately 24 hours, RTS5062, relative to untreated control cells
row,Substance,% inhibition of SMAD7 mRNA expression
1,799618 (kA*kA*k[5mC]*dA*dA*dA*dG*d[5mC]*dT*dG*d[5mC]*dA*dA*kT*kG*k[5mC]; antisense) [compound 799618],0%
2,799539 (k[5mC]*k[5mC]*k[5mC]*dG*dT*d[5mC]*d[5mC]*dA*d[5mC]*dG*dG*dA*dA*k[5mC]*kG*kG; antisense) [compound 799539],41%
3,799632 (k[5mC]*kT*kG*d[5mC]*d[5mC]*dA*dA*dA*dT*d[5mC]*dA*d[5mC]*dA*kA*kA*kG; antisense) [compound 799632],48%
4,799681 (antisense kA*k[5mC]*kT*d[5mC]*dA*dT*d[5mC]*d[5mC]*dT*dG*dT*dT*dG*kG*k[5mC]*kA) [compound 799681],53%
5,799319 (antisense kT*kG*k[5mC]*dT*dG*dT*dG*dG*dA*dT*dT*dT*dG*kA*kA*kA) [compound 799319],0%

# Same assay, conditions: Hep3B cells, electroporation, 10,000 nM, approximately 24 hours; 3-10-3 cEt gapmers targeting SEQ ID NO: 3 and 4
row,Substance,% inhibition of SMAD7 mRNA expression
1,790635 (kG*kG*kA*d[5mC]*dA*dG*dT*d[5mC]*dA*dG*dT*dT*dG*kG*kT*kT; antisense) [compound 790635],40%

# Same assay, conditions: SMAD7 mRNA, Hep3B cells, 10,000 nM antisense oligonucleotide, electroporation, approximately 24 hours, primer probe set RTS5062, relative to untreated control cells
row,Substance,% Inhibition
1,829726 (antisense k[5mC]*kT*k[5mC]*d[5mC]*dG*dT*dG*dG*d[5mC]*dA*dT*dG*d[5mC]*kG*k[5mC]*k[5mC]) [compound 829726],41%
2,829768 (antisense kG*k[5mC]*kA*dG*dG*dA*dG*dG*d[5mC]*dA*d[5mC]*dG*d[5mC]*kG*kG*kT) [compound 829768],41%
3,829749 (antisense kT*k[5mC]*k[5mC]*dT*d[5mC]*dG*d[5mC]*d[5mC]*dG*d[5mC]*d[5mC]*dG*dG*kG*k[5mC]*kG) [compound 829749],26%

# Same assay, conditions: SMAD7 mRNA, Hep3B cells, electroporation with 10,000 nM antisense oligonucleotide, approximately 24 hours, primer probe set RTS5062, relative to untreated control cells
row,Substance,% Inhibition
1,829830 (kA*kA*kT*d[5mC]*dT*dG*dA*dA*dA*dG*d[5mC]*d[5mC]*d[5mC]*k[5mC]*k[5mC]*k[5mC]; antisense) [compound 829830],36%
2,829927 (kA*kA*kG*dT*d[5mC]*dT*dA*dA*dA*d[5mC]*dA*dT*dG*k[5mC]*kT*k[5mC]; antisense) [compound 829927],64%
3,829893 (antisense kT*kG*kA*dT*d[5mC]*dT*dG*d[5mC]*dA*d[5mC]*dG*dG*dT*kA*kA*kA) [compound 829893],14%
4,829976 (kA*k[5mC]*kA*dA*dA*dA*dG*dA*dG*dG*d[5mC]*d[5mC]*dG*k[5mC]*k[5mC]*kT; antisense) [compound 829976],10%
